Assay results published in patent US20250262188A1, “Methods of Increasing the Plasma Drug Exposure of Anticancer Agents” (Scandion Oncology A/S, priority 2021, published 2025).

Key:
UGT1A1 = molecular target: T1, UGT1A1 (Homo sapiens, UniProt P22309); assay: In vitro UGT1A1 inhibition, recombinant human enzyme assays (Example 5); format: biochemical
T1 sequence (P22309 26-533): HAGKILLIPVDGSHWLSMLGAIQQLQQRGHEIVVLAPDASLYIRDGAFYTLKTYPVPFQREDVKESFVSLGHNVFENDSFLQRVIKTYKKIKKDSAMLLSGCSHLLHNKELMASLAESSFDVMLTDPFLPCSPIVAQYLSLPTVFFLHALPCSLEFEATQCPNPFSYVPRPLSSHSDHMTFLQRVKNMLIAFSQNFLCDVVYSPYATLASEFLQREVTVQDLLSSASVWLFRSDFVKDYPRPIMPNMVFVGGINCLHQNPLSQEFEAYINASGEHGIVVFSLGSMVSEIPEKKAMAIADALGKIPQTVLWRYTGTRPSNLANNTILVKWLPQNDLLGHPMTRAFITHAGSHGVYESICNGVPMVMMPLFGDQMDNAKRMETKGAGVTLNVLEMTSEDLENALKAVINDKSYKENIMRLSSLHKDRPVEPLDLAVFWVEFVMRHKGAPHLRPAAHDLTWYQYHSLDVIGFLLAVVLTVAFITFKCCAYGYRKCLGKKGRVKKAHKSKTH
Source text: The term “UGT1A1 inhibitor” as used herein refers to a molecule which is capable of binding to human uridine diphosphate (UDP)-glycuronosyl transferase (UGT1A1), particularly in humans or animals and decrease the enzymatic activity of the UGT1A1. […] Whether or not a particular molecule is an UGT1A1 inhibitor can be determined by examining the molecule's IC50 in vitro in a UGT1A1 inhibition assays known in the art.
The inhibition of UGT1A1 was investigated by recombinant human enzyme assays.

[1] = Plasma concentrations of SCO-101 and SN-38 in patients upon repeated administration of SCO-101 (Example 1); format: in vivo, human; settings: 150 mg SCO-101 repeated every 24 hours, FIG. 1D
Method: On days 1, 2, 3, 4, 5 and 6 in each treatment cycle, patients received one fixed daily dose of 150 mg SCO-101 taken in the morning at least 30 minutes before ingestion of food. On day 5 to 7, patients received FOLFIRI as specified for Colorectal cancer combination regimen 2. Blood samples were taken from patients at predefined timepoints according to the study protocol. During the first cycle of treatment, blood samples for pharmacokinetic analysis of SCO-101, irinotecan, and SN-38 were taken as follows: • Day 1; (pre-SCO-101 administration, 1; 4; 5; 6; 8); only for PK analysis of SCO-101 • Day 2; […] (pre-SCO-101 administration, 1; 4; 5; 6; 8) • Day 6; […] (48 hours), • Day 9; (96 hours). Blood samples were collected in 4 mL blood-collection tubes using lithium heparin as the anti-coagulant. Blood samples were centrifuged, and the resulting plasma is withdrawn and stored at −70° C. until analysis. […] The method and system, including validation were according to industry standard. Data were analysed using commercially available software such as Win-Non-Lin (available from Certara inc.) SCO-101 and Irinotecan was administered as described in the materials and methods section. Blood samples were withdrawn and analysed as specified. […] Raw data was then plotted using win-non-lin software to obtain relevant pharmacokinetic parameters, e.g. Cmax and AUC. […]

ABCG2 [2] = molecular target: T2, ABCG2 (Homo sapiens, UniProt Q9UNQ0); assay: Protein analysis of ABCG2 (western blot) in colon cancer cells (Example 4); format: cell-based
T2 construct: endogenous in cells; host or cells: HT29 and LoVo, parental and SN38-resistant
T2 sequence (Q9UNQ0 1-655): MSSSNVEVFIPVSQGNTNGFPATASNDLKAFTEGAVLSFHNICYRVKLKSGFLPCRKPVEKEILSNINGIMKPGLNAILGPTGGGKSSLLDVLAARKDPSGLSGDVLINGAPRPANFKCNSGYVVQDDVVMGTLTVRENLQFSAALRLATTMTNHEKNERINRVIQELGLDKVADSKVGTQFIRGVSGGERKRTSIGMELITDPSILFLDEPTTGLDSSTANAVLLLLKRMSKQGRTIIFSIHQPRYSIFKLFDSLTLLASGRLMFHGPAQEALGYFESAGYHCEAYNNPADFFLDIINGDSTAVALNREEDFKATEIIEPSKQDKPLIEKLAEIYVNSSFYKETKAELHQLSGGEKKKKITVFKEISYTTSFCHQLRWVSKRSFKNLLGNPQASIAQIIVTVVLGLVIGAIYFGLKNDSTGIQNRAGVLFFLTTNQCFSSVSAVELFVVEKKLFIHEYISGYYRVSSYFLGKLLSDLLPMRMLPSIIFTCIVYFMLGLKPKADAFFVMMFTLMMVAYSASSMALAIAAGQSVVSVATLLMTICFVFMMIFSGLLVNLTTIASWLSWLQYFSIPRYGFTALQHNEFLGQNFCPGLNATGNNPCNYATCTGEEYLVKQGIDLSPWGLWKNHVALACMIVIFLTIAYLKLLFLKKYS
Source text: (§1) Pairs of parental (sensitive) and SN38-resistant human colon cancer cell lines (HT29 and LoVo) were used. ABCG2 overexpression and effects of SCO-101 on ABCG2 was investigated by western blot, qPCR, dye-flux assays, bi-directional flux assays, 3H-SN38 accumulation assays and vesicular uptake assays. The effect of SCO-101 on SN38 re-sensitization was investigated by cell viability assays (MTT/PrestoBlue) and clonogenic assays.

ABCG2 [3] = molecular target: T2, ABCG2; assay: Flux assays (dye-flux, bi-directional flux, 3H-SN38 accumulation, vesicular uptake) in colon cancer cells (Example 4); format: cell-based; settings: parental and SN38-resistant HT29 and LoVo cells
Source text: as §1

[4] = tested on: SN38-resistant human colon cancer cell lines (HT29 and LoVo); assay: Cell viability (MTT/PrestoBlue) and clonogenic assays (Example 4); format: cell-based; settings: SN-38-resistant cells exposed to SCO-101 and SN-38
Source text: as §1

Question: Which results are given for `O=C(Nc1cc(C(F)(F)F)cc(C(F)(F)F)c1)Nc1ccc(Br)cc1-c1nnn[nH]1` [SCO-101]?
Answer: IC50 (UGT1A1; read-out: IC50 towards UGT1A1): ~100 nM; UGT1A1 inhibition (in words) (UGT1A1; recombinant human enzyme): potent inhibitor of UGT1A1; SCO-101 plasma level at which levels stabilize over time ([1]; modelled from patient data): around 55 μg/mL; half-life ([1]; human, plasma, oral, read-out: SCO-101 half-life after stopping the administration (converted)): ~24 h; Effect on ABCG2 protein (ABCG2 [2]): causes degradation of ABCG2; Effect on the activity of ABCG2 in flux assays (ABCG2 [3]): inhibited the activity of ABCG2; Effect on cell viability and colony formation of the combination with SN-38 compared to either drug alone [4]: synergistic inhibitory effect
